Test results taken from US20090104145A1, “Mixtures of Anthranilamide Invertebrate Pest Control Agents” (priority 2004, published 2009).

Tested on: diamondback moth (Plutella xylostella)
Experiment: whole plant or invertebrate
Format: in vivo
Method: The pest control protection afforded by the mixtures or compositions is not limited, however, to these species. The analysis of synergism or antagonism between the mixtures or compositions was determined using Colby's equation. The average % mortality data for the test compounds alone were inserted into the Colby's equation. If the observed average % mortality was higher than “p”, the expected % mortality, the mixture or composition had synergistic effects. If the observed average % mortality was equal to or lower than the expected mortality, the mixture or composition either had no synergistic effect or an antagonistic effect. In these tests, Compound 1 is the compound of Formula 1.
For evaluating control of diamondback moth (Plutella xylostella), cabbage (var. Stonehead) plants were grown in Metromix potting soil in 10-cm pots in aluminum trays to test size (28 days, 3-4 full leaves) the plants were sprayed to the point of runoff using the turntable sprayer as described in Test I. Test compounds were formulated and sprayed on test plants as described for Test I. After drying for 2 hours, the treated leaves were excised and infested with one cabbage looper per cell and covered. The test units were placed on trays and put in a growth chamber at 25° C. and 60% relative humidity for 4 days.

`CNC(=O)c1cc(C#N)cc(C)c1NC(=O)c1cc(Br)nn1-c1ncccc1Cl` [Compound 1, 3-bromo-N-[4-cyano-2-methyl-6-[(methylamino)carbonyl]phenyl]-1-(3-chloro-2-pyridinyl)-1H-pyrazole-5-carboxamide] gave a mortality at 0.005 ppm (Plutella xylostella, in Brassica oleracea, rate 0.005 ppm, read-out: % mortality (obs)) of 86%, a mortality at 0.02 ppm (Plutella xylostella, in Brassica oleracea, rate 0.02 ppm, read-out: % mortality (obs)) of 87% and a mortality at 0.08 ppm (Plutella xylostella, in Brassica oleracea, rate 0.08 ppm, read-out: % mortality (obs)) of 94%. For the same molecule, the “% mortality” value (rate 0.02) was 83% and the “% mortality” value (rate 0.08) was 90%.
